One assay addresses Mtb Lpd (Mycobacterium tuberculosis (strain ATCC 25618 / H37Rv), UniProt P9WHH9). In kind it is biochemical. To be noted: 30 min preincubation; read-out: LPD IC50 (μM) w/ 30 min preincubation.
As to `Cc1cc(S(=O)(=O)N(C)CC(=O)Nc2cc(=O)n(C)cn2)c2[nH]c(C#N)cc2c1` [Example 222], the IC50 was 0.027 µM.
With `Cc1cc(S(=O)(=O)N(C)CC(=O)Nc2ccn3nccc3c2)c2[nH]c(C#N)cc2c1` [Example 220], the IC50 was found to be 0.019 µM.
Still for that read-out and setting: then `Cc1cc(S(=O)(=O)N(C)CC(=O)Nc2ccc3c(c2)CCCO3)c2[nH]c(C#N)cc2c1` [Example 221], with 0.015 µM; and `CC#CCN(C)C(=O)CN(C)S(=O)(=O)c1cc(C)cc2cc(C#N)[nH]c12` [Example 226], with 0.368 µM.
`C/C=C/CNC(=O)CN(C)S(=O)(=O)c1cc(C)cc2cc(C#N)[nH]c12` [Example 227]: the IC50 stood at 0.018 µM.
On the same count and under the same terms, then `Cc1cc(S(=O)(=O)N(C)CC(=O)Nc2ccc(N3CCOCC3)c(Cl)c2)c2[nH]ncc2c1` [Example 126], with 0.015 µM.

The same assay, now with this note: read-out: LPD IC50.
Regarding `Cc1cc(S(=O)(=O)N2CC[C@H]2C(=O)Nc2ccn3nccc3c2)c2[nH]ncc2c1` [Example 91], the IC50 turned out to be 0.041 µM.
Still for that read-out and setting: then `Cc1cc(S(=O)(=O)N(C)CC(=O)Nc2cc3ccccc3cn2)c2n[nH]cc2c1` [Example 67], with 0.0372 µM; and `Cc1cc(S(=O)(=O)N(C)CC(=O)NC2CCN(C)CC2)c2n[nH]cc2c1` [Example 53], with 0.963 µM.
On the same count and under the same terms, under `Cc1cc(S(=O)(=O)N(C)CC(=O)Nc2ccn(C)c(=O)c2)c2[nH][nH]c(=O)c2c1` [Example 133, 2-((N,5-dimethyl-3-oxo-2,3-dihydro-1H-indazole)-7-sulfonamido)-N-(1-methyl-2-oxo-1,2-dihydropyridin-4-yl)acetamide] stands 0.0706 µM; under `Cc1cc(S(=O)(=O)N(C)CC(=O)Nc2cc(C)n(C)c(=O)c2)c2[nH]ncc2c1` [Example 17, 2-((N,5-dimethyl-1H-indazole)-7-sulfonamido)-N-(1,6-dimethyl-2-oxo-1,2-dihydropyridin-4-yl)acetamide], 0.052 µM.
The same measure, in the same setting: under `Cc1cc(S(=O)(=O)N(C)CC(=O)NCc2cn(C)nn2)c2[nH]ncc2c1` [Example 108] stands 0.111 µM; under `Cc1cc(S(=O)(=O)N(C)CC(=O)Nc2ccc3c(c2)OCCN3C2CCOCC2)c2[nH]ncc2c1` [Example 89], 0.0419 µM; under `Cc1cc(S(=O)(=O)N(C)CC(=O)NC2(C)CCCCC2)c2n[nH]cc2c1` [Example 127], 1.14 µM.
Regarding `Cc1cc(S(=O)(=O)N2CC[C@H]2C(=O)Nc2ccc(C#N)c(Cl)c2)c2[nH]ncc2c1` [Example 86], the IC50 is 0.0414 µM.
Turning to `Cc1cc(S(=O)(=O)N(C)CC(=O)NC2C(=O)N(C)c3ccccc32)c2n[nH]cc2c1` (stereo not drawn) [Example 79], the IC50 came to 0.779 µM.
Same read-out and setting: then `Cc1cc(S(=O)(=O)N2CC[C@H]2C(=O)Nc2cc3ccccc3cn2)c2[nH]ncc2c1` [Example 82], with 0.0489 µM; and `Cc1cc(S(=O)(=O)N2CC[C@H]2C(=O)NC2CCCCC2)c2[nH]ncc2c1` [Example 70, (S)—N-cyclohexyl-1-((5-methyl-1H-indazol-7-yl)sulfonyl)azetidine-2-carboxamide], with 0.279 µM.
For the compound `Cc1cc(S(=O)(=O)N2CCC2C(=O)NCc2ccccc2)c2[nH]ncc2c1` (stereo not drawn) [Example 81], the IC50 came out at 0.62 µM.
The same measure, in the same setting: then `Cc1cc(S(=O)(=O)N(C)CC(=O)NC2CCc3cnccc32)c2n[nH]cc2c1` (stereo not drawn) [Example 114], with 0.0954 µM.
For the compound `Cc1cc(S(=O)(=O)N(CC(=O)Nc2ccn(C)c(=O)c2)C2COC2)c2[nH]ncc2c1` [Example 38, N-(1-methyl-2-oxo-1,2-dihydropyridin-4-yl)-2-((5-methyl-N-(oxetan-3-yl)-1H-indazole)-7-sulfonamido)acetamide], the IC50 was 0.42 µM.
With `Cc1cc(S(=O)(=O)N(C)CC(=O)NC2CCN(C)C(=O)C2)c2n[nH]cc2c1` (stereo not drawn) [Example 68], the IC50 is 0.149 µM.
Take `Cc1cc(S(=O)(=O)N(C)CC(=O)Nc2ccn(C)c(=O)c2)c2nn[nH]c2c1` [Example 132, 2-((N,5-dimethyl-1H-benzo[d][1,2,3]triazole)-7-sulfonamido)-N-(1-methyl-2-oxo-1,2-dihydropyridin-4-yl)acetamide]: the IC50 was 0.386 µM.
Still for that read-out and setting: under `Cc1cccc(CNC(=O)CN(C)S(=O)(=O)c2cc(C)cc3c[nH]nc23)c1` [Example 110] stands 0.041 µM.
Still for that read-out and setting: then `Cc1ccc(CNC(=O)CN(C)S(=O)(=O)c2cc(C)cc3cn[nH]c23)cc1` [Example 111], with 0.0522 µM; and `Cc1cc(S(=O)(=O)N(C)CC(=O)NC2CCCOC2)c2n[nH]cc2c1` (stereo not drawn) [Example 54], with 0.0906 µM.
On the same count and under the same terms, under `Cc1cc(S(=O)(=O)N(C)CC(=O)N[C@@H]2CCc3ccccc32)c2n[nH]cc2c1` [Example 56] stands 0.0426 µM; under `Cc1cc(S(=O)(=O)N2CC[C@H]2C(=O)NC2CCCN(C)C2)c2[nH]ncc2c1` (stereo partly drawn) [Example 135-R], 2.65 µM.
As to `CCc1cc(S(=O)(=O)N(C)CC(=O)Nc2ccn(C)c(=O)c2)c2n[nH]cc2c1` [Example 117, 2-((5-ethyl-N-methyl-1H-indazole)-7-sulfonamido)-N-(1-methyl-2-oxo-1,2-dihydropyridin-4-yl)acetamide], the IC50 is 0.05 µM.
On the same count and under the same terms, under `C#CCNC(=O)CN(C)S(=O)(=O)c1cc(C)cc2cn[nH]c12` [Example 107] stands 0.047 µM; under `Cc1cc(S(=O)(=O)N(C)CC(=O)Nc2nc3c(s2)CCOC3)c2n[nH]cc2c1` [Example 116], 0.0771 µM.
Same read-out and setting: then `CN(CC(=O)Nc1ccn(C)c(=O)c1)S(=O)(=O)c1cc(C2(O)CC2)cc2cn[nH]c12` [Example 172, 2-((5-(1-hydroxycyclopropyl)-N-methyl-1H-indazole)-7-sulfonamido)-N-(1-methyl-2-oxo-1,2-dihydropyridin-4-yl)acetamide], with 0.654 µM; and `Cc1cc(S(=O)(=O)N(C)CC(=O)Nc2ccn3c(C(F)(F)F)ncc3c2)c2n[nH]cc2c1` [Example 130], with 0.0345 µM; and `Cc1cc(S(=O)(=O)N(C)CC(=O)Nc2ccc3c(c2)OCCN3C(C)C)c2n[nH]cc2c1` [Example 157], with 0.014 µM.
On the same count and under the same terms, then `Cc1cc(S(=O)(=O)N2CCC(C(=O)Nc3ccc4c(c3)OCCN4C)C2)c2[nH]ncc2c1` (stereo not drawn) [Example 120], with 0.0197 µM; and `Cc1cc(S(=O)(=O)N(C)CC(=O)NC2C(=O)Nc3ccccc32)c2n[nH]cc2c1` (stereo not drawn) [Example 77], with 0.803 µM.
In the case of `Cc1cc(S(=O)(=O)N2CC[C@H]2C(=O)Nc2ccc3ccccc3n2)c2[nH]ncc2c1` [Example 84], the IC50 stood at 0.027 µM.
The same measure, in the same setting: then `Cc1cc(S(=O)(=O)N2CC[C@H]2C(=O)NC2CCc3ccccc32)c2[nH]ncc2c1` (stereo partly drawn) [Example 138], with above 10 µM.
Still for that read-out and setting: under `Cc1cc(S(=O)(=O)N(C)CC(=O)NC2CCCN(C)C2)c2n[nH]cc2c1` (stereo not drawn) [Example 66] stands 0.593 µM.
Regarding `Cc1cc(S(=O)(=O)N2CC[C@H]2C(=O)NC2COC2)c2[nH]ncc2c1` [Example 80], the IC50 came out at 0.285 µM.
Still for that read-out and setting: then `Cc1cc(S(=O)(=O)N(C)CC(=O)Nc2ccc(N3CCOCC3)c(Cl)c2)c2[nH]ncc2c1` [Example 126], with 0.019 µM.
Still for that read-out and setting: under `Cc1cc(S(=O)(=O)N(C)CC(=O)Nc2ccc3ccccc3n2)c2n[nH]cc2c1` [Example 64] stands 0.0335 µM; under `Cc1cc(S(=O)(=O)N(C)CC(=O)Nc2nc3ccccc3s2)c2n[nH]cc2c1` [Example 58], 0.0315 µM.
The same measure, in the same setting: then `CCN(CC(=O)Nc1ccc2c(c1)OCCN2C1COC1)S(=O)(=O)c1cc(C)cc2c[nH]nc12` [Example 155], with 0.0246 µM.
In the case of `Cc1cc(S(=O)(=O)N(C)CC(=O)Nc2ccn3nc(C)cc3c2)c2[nH]ncc2c1` [Example 104], the IC50 turned out to be 0.157 µM.
With `Cc1cc(S(=O)(=O)N(C)CC(=O)NC2CCCCC2)c2n[nH]cc2c1` [Example 73], the IC50 came out at 0.0858 µM.
As for `Cc1cc(S(=O)(=O)N(C)CC(=O)N[C@H]2CCCOC2)c2[nH]ncc2c1` [Example 112], the IC50 was 0.109 µM.
On to `Cc1cc(S(=O)(=O)N2CC[C@H]2C(=O)NC2CCCN(C)C2)c2[nH]ncc2c1` (stereo partly drawn) [Example 135-S], for which the IC50 turned out to be 5.87 µM.
Still for that read-out and setting: then `Cc1cc(S(=O)(=O)N2CCC[C@@H](C(=O)Nc3ccn(C)c(=O)c3)C2)c2[nH]ncc2c1` [Example 96, (R)-1-((5-methyl-1H-indazol-7-yl)sulfonyl)-N-(1-methyl-2-oxo-1,2-dihydropyridin-4-yl)piperidine-3-carboxamide], with 0.112 µM; and `Cc1cc(S(=O)(=O)N(C)CC(=O)N[C@@H]2CCCOC2)c2[nH]ncc2c1` [Example 113], with 0.184 µM; and `Cc1cc(S(=O)(=O)N(C)CC(=O)NCc2ccccc2C)c2[nH]ncc2c1` [Example 109], with 0.107 µM.
On the same count and under the same terms, then `Cc1cc(S(=O)(=O)N2CC[C@H]2C(=O)NC2CCc3ccccc32)c2[nH]ncc2c1` (stereo partly drawn) [Example 131], with 2.52 µM; and `CCCc1cc(S(=O)(=O)N(C)CC(=O)Nc2ccn(C)c(=O)c2)c2[nH]ncc2c1` [Example 118], with 0.0702 µM.
On the same count and under the same terms, then `Cc1cc(S(=O)(=O)N(C)CC(=O)Nc2nc3c(s2)CCN(C)C3)c2n[nH]cc2c1` [Example 137, 2-(N,5-dimethyl-1H-indazole-7-sulfonamido)-N-(5-methyl-4,5,6,7-tetrahydrothiazolo[4,5-c]pyridin-2-yl)acetamide], with 0.025 µM; and `Cc1cc(S(=O)(=O)N(C)CC(=O)N[C@H]2CCc3ccccc32)c2n[nH]cc2c1` [Example 55], with 0.874 µM.
Consider `Cc1cc(S(=O)(=O)N2CCC(C(=O)Nc3ccn(C)c(=O)c3)C2)c2[nH]ncc2c1` (stereo not drawn) [Example 213], for which the IC50 came to 1.92 µM.
Same read-out and setting: under `Cc1cc(S(=O)(=O)N2CC[C@H]2C(=O)N[C@@H]2CCCOC2)c2[nH]ncc2c1` [Example 142, (2S)-1-[(5-methyl-1H-indazol-7-yl)sulfonyl]-N-[(3R)-tetrahydropyran-3-yl]azetidine-2-carboxamide] stands 0.47 µM; under `Cc1cc(S(=O)(=O)N2CC[C@@H](C(=O)Nc3ccc(N4CCOCC4)c(Cl)c3)C2)c2n[nH]cc2c1` [Example 119], 0.0348 µM; under `Cc1cc(S(=O)(=O)N2CC[C@H]2C(=O)NC2CCOCC2)c2[nH]ncc2c1` [Example 128], 1.07 µM.
Take `Cc1cc(S(=O)(=O)N2CC[C@H]2C(=O)N[C@H]2CCCOC2)c2[nH]ncc2c1` [Example 141, (2S)-1-[(5-methyl-1H-indazol-7-yl)sulfonyl]-N-[(3S)-tetrahydropyran-3-yl]azetidine-2-carboxamide]: the IC50 came to 0.811 µM.

(Values after patent US20240132480A1, “INHIBITORS OF MYCOBACTERIUM TUBERCULOSIS LIPOAMIDE DEHYDROGENASE” (Cornell University, priority 2021, published 2024).)
